Source: patent US11242344B2, “(4-hydroxypyrrolidin-2-yl)-heterocyclic compounds and methods of use thereof” (Genentech, Inc., priority 2017, dated 2022)

Key:
[1] = biological target: NanoLuc VHL fusion protein (Homo sapiens (Human), UniProt P40337); assay: VHL HEK-293 BRET Assay (NanoBRET Target Engagement); type: cell-based; conditions: geometric mean where more than one measurement
Description: The VHL NanoBRET™ Target Engagement Assay analyzes the apparent affinity of test compounds for VHL in cells by competitive displacement of a VHL NanoBRET™ tracer reversibly bound to a NanoLuc® VHL fusion protein stably expressed in the cells. Test compounds were transferred to the assay plate (384 Well White Non-Binding Corning Assay Plates (Corning-3574)) using an Echo 555 Liquid Handler (Labcyte) in 2.5 nL increments and, as appropriate, intermediate stock concentrations of compounds, in order to prepare a titration series. 50 nL of control compound (10 mM; parental unlabeled VHL antagonist; see structure below) and 50 nL of DMSO (negative control) were dispensed into the appropriate control wells. DMSO was backfilled to a final volume of 50 nL as required. 50 nl per well of 1 mM VHL NanoBRET™ Tracer in DMSO (NanoBRET™ Tracer-PEG2-590 (see structure below)) was transferred into each well using an Echo 555 (ultimately yielding a final concentration of 1 uM). HEK 293 RT VHL-NanoLuc® stable cells were cultured in DMEM High Glucose with Pyruvate, 10% fetal bovine serum, 2 mg/mL of Geneticin Selective Antibiotic (50 mg/ml) and 2 mM HEPES (1 M). Cells were seeded in Opti-MEM (Life Technologies-11058-021), 1.7×10^5 cells/mL, 40 μl per well into the assay plate, centrifuged at 500 rpm for 30 seconds and incubated for 2 hours. Max Signal control wells consisted of DMSO only treated wells. Minimum Signal control wells contained of 10 uM parental unlabeled VHL antagonist (control compound—see structure below). 3× Complete Substrate plus Inhibitor Solution was prepared in Opti-MEM (consists of a 1:166 dilution of NanoBRET™ Nano-Glo® Substrate plus a 1:500 dilution of Extracellular NanoLuc® Inhibitor in Opti-MEM), and 20 ul was dispensed into each well of the 384-well plate and centrifuged at 1000 rpm for 1 minute, then incubated for 2 minutes at room temperature. Background Signal control wells were prepared without tracer for background correction steps. Plates were read using a PerkinElmer Envision Reader (model 2104-0020) equipped with Luminescence option (Mirror: BRET2 Enh (PE Barcode 659), Emission Filter: Omega 610LP (Barcode 504), 2nd Emission Filter: Umbelliferone 460 (Barcode 207), Measurement height: 6.5 mm, Measurement time: 1 s). The raw BRET ratio values were calculated by dividing the acceptor emission value (610 nm) by the donor emission value (460 nm) for each sample. To correct for background, the BRET ratio in the absence of tracer (average of no-tracer control samples) was subtracted from the BRET ratio of each sample. Raw BRET units were converted to milliBRET units (mBU) by multiplying each raw BRET value by 1,000. The normalized NanoBRET™ signal was calculated relative to the Max Signal control wells (DMSO treated control wells) and the Minimum Signal control wells. Percentage inhibition was calculated relative to the Minimum Signal control and Maximum Signal control wells. IC50 values were derived by four parameter curve fitting using the Robust method.

VHL Elongin B/C complex = VHL Elongin B/C complex (Homo sapiens (Human), UniProt P40337); assay: Fluorescence Polarization (FP) VHL Binding Assay; conditions: VHL binding, FP assay; geometric mean where more than one measurement
Description: The binding of test compounds to the VHL Elongin B/C complex was measured using a fluorescence polarization tracer competition assay. The VHL/Elongin B/C protein complex used in the assay was generated as follows. The coding region for amino acids E55-D213 of human VHL with N-terminal His6 tag with a TEV-protease cleavage site was co-expressed with Elongin B (residues M1-Q118) and Elongin C (Residues M17-C112) in E. coli. […] The purified VHL/Elongin B/C complex was dialyzed into formulation buffer: 20 mM Bis-Tris pH7.0, 150 mM NaCl, 1 mM DTT. A VHL fluorescence polarization probe (prepared in Example 91), consisted of a VHL ligand coupled to carboxytetramethylrhodamine (TAMRA); […] Compounds were prepared as a serial dilution in DMSO at a concentration 25-fold higher than the final desired concentration and acoustically dispensed (400 nl) into a ProxiPlate-384 Plus F, Black 384-shallow well Microplate (Part Number 6008260). DMSO was dispensed into wells designated for “VHL control” (without compound) wells. The “Assay Buffer” consisted of 50 mM Tris pH 8.0, 120 mM NaCl, 0.005% Nonidet P-40, and 1% DMSO (v/v). Assay Buffer containing […] VHL Elongin B/C complex was prepared and 5 μl dispensed using a BioRapTR (Beckman Coulter) into each well of the assay plate. Assay Buffer was also dispensed into “no VHL control” wells using the same method. A “pre-assay” fluorescence measurement was made using an Infinite® M1000 (Tecan) plate reader (Excitation 530 nm, Emission 574 nm, Bandwidth 10 nm). Assay Buffer containing 3.34 nM of the VHL FP probe was prepared in Assay Buffer and 5 μl dispensed into each well of the assay plate using a BioRapTR (Beckman Coulter). The final VHL/Elongin B/C protein concentration is 2.64 nM and the final probe concentration is 1.67 nM. Assay plates were briefly centrifuged and incubated for 1 hour at room temperature. “Post-assay” fluorescence polarization measurements were made as described for the “pre-assay” fluorescence measurement. Fluorescence polarization was calculated for each sample; taking into account the “pre-assay” fluorescence measurements and subtracting the fluorescence signal of the compound/VHL only (“pre-assay”) measurements from the “post-assay” fluorescence polarization measurements, for each plane of polarization. The data were analyzed using Genedata Screener software and normalized to the “no VHL control” and “VHL control” (without compound). IC50 values were calculated using a four parameter curve fit (Robust method).

[2] = biological target: VHL co-expressed with Elongins B and C (Homo sapiens (Human), UniProt P40337); assay: Surface Plasmon Resonance Assay; type: binding; conditions: SPR measured VHL affinity; geometric mean where more than one measurement
Description: Using a Biacore T200, […] tagged VHL co-expressed with Elongins B and C were immobilized to a Biacore SA chip in running buffer without DMSO. Compounds were tested individually at varying concentrations in running buffer (50 mM HEPES pH 7.2, 150 mM NaCl, 0.5 mM TCEP, 0.001% Tween 20, 0.2% PEG3350, 2% DMSO) at 20° C. Sensorgrams were run in order from low to high concentration using a flow rate of 80 μL/min. Association and disassociation times were varied depending on the estimated potency of the compound tested. […] Galdeano et al, J. Med. Chem. 2014, 57, 8657-8663, herein incorporated by reference) which retained greater than 75% of the activity over the course of the run. Analysis of the binding curves and determination of the kinetic parameters were done using evaluation software (Version 2.0, Biacore).

Chain of NanoLuc VHL fusion protein (P40337 whole entry, looked up, the tested form may be a part): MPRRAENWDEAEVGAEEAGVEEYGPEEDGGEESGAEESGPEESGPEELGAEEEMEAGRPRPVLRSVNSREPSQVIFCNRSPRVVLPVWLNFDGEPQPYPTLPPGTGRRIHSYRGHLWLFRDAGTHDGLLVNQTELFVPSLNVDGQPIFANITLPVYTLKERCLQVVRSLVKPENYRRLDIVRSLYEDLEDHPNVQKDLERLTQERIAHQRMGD
Chain of NanoLuc VHL fusion protein (Q15370 whole entry partner, looked up, the tested form may be a part): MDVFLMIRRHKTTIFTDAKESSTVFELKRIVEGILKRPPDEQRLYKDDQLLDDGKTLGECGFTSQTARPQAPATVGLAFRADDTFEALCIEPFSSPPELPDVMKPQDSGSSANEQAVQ
Chain of NanoLuc VHL fusion protein (Q15369 whole entry partner, looked up, the tested form may be a part): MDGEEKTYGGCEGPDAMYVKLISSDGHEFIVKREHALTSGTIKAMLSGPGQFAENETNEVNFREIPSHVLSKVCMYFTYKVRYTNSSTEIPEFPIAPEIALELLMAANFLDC
Chain of VHL Elongin B/C complex (P40337 whole entry, looked up, the tested form may be a part): as the sequence (P40337 whole entry, looked up, the tested form may be a part) above
Chain of VHL Elongin B/C complex (Q15370 whole entry partner, looked up, the tested form may be a part): as the sequence (Q15370 whole entry partner, looked up, the tested form may be a part) above
Chain of VHL Elongin B/C complex (Q15369 whole entry partner, looked up, the tested form may be a part): as the sequence (Q15369 whole entry partner, looked up, the tested form may be a part) above
Chain of VHL co-expressed with Elongins B and C (P40337 whole entry, looked up): as the sequence (P40337 whole entry, looked up, the tested form may be a part) above
Chain of VHL co-expressed with Elongins B and C (Q15370 whole entry partner, looked up): as the sequence (Q15370 whole entry partner, looked up, the tested form may be a part) above
Chain of VHL co-expressed with Elongins B and C (Q15369 whole entry partner, looked up): as the sequence (Q15369 whole entry partner, looked up, the tested form may be a part) above

SMILES | IC50 [1] [µM] | IC50 (VHL Elongin B/C complex) [µM] | Kd [2] [µM]
C#Cc1cccc(Nc2ncnc3cc(OCCOC)c(OCCOCC#CC#CCOc4cc(C(C(=O)N5C[C@H](O)CC5C5=NC(=O)[C@](C)(c6ccc(-c7scnc7C)cc6)N5)C(C)C)on4)cc23)c1 (single isomer, unassigned) [Example 1004.3] | ≥ 100 | 75.8 | 
C#Cc1cccc(Nc2ncnc3cc(OCCOC)c(OCCOCC#CC#CCOc4cc(C(C(=O)N5C[C@H](O)CC5C5=NC(=O)[C@](C)(c6ccc(-c7scnc7C)cc6)N5)C(C)C)on4)cc23)c1 (single isomer, unassigned) [Example 1004.4] | ≥ 100 | 6.25 | 
CC(=O)N[C@H](C(=O)N1C[C@H](O)CC1C1=NC(=O)C(C)(c2ccc(-c3scnc3C)cc2)N1)C(C)(C)C (single isomer, unassigned) [Example 102.2] |  | 93.1 | 43.8
C#Cc1cccc(Nc2ncnc3cc(OCCOC)c(OCCOCC#CC#CCOc4cc(C(C(=O)N5C[C@H](O)CC5C5=NC(=O)[C@](C)(c6ccc(-c7scnc7C)cc6)N5)C(C)C)on4)cc23)c1 (single isomer, unassigned) [Example 1004.1] | 68.3 | 6.25 | 
CC(=O)N[C@H](C(=O)N1C[C@H](O)CC1C1=NC(=O)C(C)(c2ccc(Br)cc2)N1)C(C)(C)C (single isomer, unassigned) [Example 101.2] |  | > 200 | 41.6
Cc1cc(C(C(=O)N2C[C@H](O)CC2C2=NC(=O)C(C)(C)N2)C(C)C)on1 (single isomer, unassigned) [Example 107.2] |  | 24.1 | 14.9
CC(=O)N[C@H](C(=O)N1C[C@H](O)CC1C1=NC(=O)C(C)(c2ccc(Br)cc2)N1)C(C)(C)C (single isomer, unassigned) [Example 101.4] |  | 108 | 26.7
Cc1cc(C(C(=O)N2C[C@H](O)CC2C2=NC(=O)C(C)(c3ccc(-c4scnc4C)cc3)N2)C(C)C)on1 (single isomer, unassigned) [Example 104.4] |  | 0.422 | 0.171
C#Cc1cccc(Nc2ncnc3cc(OCCOC)c(OCCOCC#CC#CCOc4cc(C(C(=O)N5C[C@H](O)CC5C5=NC(=O)[C@](C)(c6ccc(-c7scnc7C)cc6)N5)C(C)C)on4)cc23)c1 (single isomer, unassigned) [Example 1004.2] | 46.4 | 75.8 | 
Cc1cc(C(C(=O)N2C[C@H](O)CC2C2=NC(=O)C(C)(c3ccc(Br)cc3)N2)C(C)C)on1 (single isomer, unassigned) [Example 103.1] |  | > 400 | > 150
Cc1cc(C(C(=O)N2C[C@H](O)CC2C2=NC(=O)C(C)(c3ccc(-c4cccnc4)cc3)N2)C(C)C)on1 (single isomer, unassigned) [Example 105.1] |  | 375 | 241
CC(=O)N[C@H](C(=O)N1C[C@H](O)CC1C1=NC(=O)C(C)(c2ccc(Br)cc2)N1)C(C)(C)C (single isomer, unassigned) [Example 101.1] |  | > 200 | > 500
CC(=O)N[C@H](C(=O)N1C[C@H](O)CC1C1=NC(=O)C(C)(c2ccc(-c3scnc3C)cc2)N1)C(C)(C)C (single isomer, unassigned) [Example 102.3] |  | 43.3 | 10.7

More lines, now with the values ahead:

IC50 [1] [µM] | IC50 (VHL Elongin B/C complex) [µM] | Kd [2] [µM] | SMILES
21.7 | 10 |  | Cc1cc(C(C(=O)N2C[C@H](O)C[C@H]2C2=NO[C@](C)(c3ccc(-c4ccccc4F)cc3)N2)C(C)C)on1 (single isomer, unassigned) [Example 139.1]
77.1 | 93.6 | ≥ 150 | Cc1cc(C(C(=O)N2C[C@H](O)CC2C2=NC(C)(C)C(C)(C)N2)C(C)C)on1 (stereo partly drawn) [Example 136.1, 1-((4R)-4-Hydroxy-2-(4,4,5,5-tetramethyl-4,5-dihydro-1H-imidazol-2-yl)pyrrolidin-1-yl)-3-methyl-2-(3-methylisoxazol-5-yl) butan-1-one]
100 | 242 |  | Cc1cc([C@@H](C(=O)N2C[C@H](O)CC2C2=NOC3(CCCc4ccccc43)N2)C(C)C)on1 (single isomer, unassigned) [Example 131.2]
≥ 100 | ≥ 400 |  | Cc1cc(C(C(=O)N2C[C@H](O)CC2C2=NS(=O)(=O)CN2)C(C)C)on1 (single isomer, unassigned) [Example 137.1]
23 | 19.6 |  | Cc1cc([C@H](C(=O)N2C[C@H](O)CC2C2=NOC3(CCCc4ccccc43)N2)C(C)C)on1 (single isomer, unassigned) [Example 131.3]
100 | 160 |  | Cc1cc([C@@H](C(=O)N2C[C@H](O)CC2C2=NOC3(CCCc4ccccc43)N2)C(C)C)on1 (single isomer, unassigned) [Example 131.1]
≥ 100 | ≥ 400 |  | Cc1cc(C(C(=O)N2C[C@H](O)CC2C2=NS(=O)(=O)CN2)C(C)C)on1 (single isomer, unassigned) [Example 137.3]
0.0678 | 0.0628 |  | Cc1cc(C(C(=O)N2C[C@H](O)C[C@H]2C2=NO[C@](C)(c3ccc(-c4ccccc4F)cc3)N2)C(C)C)on1 (single isomer, unassigned) [Example 139.2]
≥ 100 | 47.3 |  | Cc1cc(C(C(=O)N2C[C@H](O)CC2C2=NS(=O)(=O)CN2)C(C)C)on1 (single isomer, unassigned) [Example 137.2]
20 | 19.9 |  | Cc1cc([C@H](C(=O)N2C[C@H](O)CC2C2=NOC3(CCCc4ccccc43)N2)C(C)C)on1 (single isomer, unassigned) [Example 131.4]
